{"source": "paper PMC10202811", "about": "(Nature Medicine, 2023)", "assay": "Plasma pharmacokinetics of lorlatinib at steady state (LC-MS/MS, non-compartmental analysis)", "format": "in vivo, human", "details": "human; for Cmax: read-out: Cmax; for Tmax: read-out: Tmax", "text": "Lorlatinib was isolated from human plasma by a liquid-iquid extraction procedure. […] A linear-log trapezoidal method was used [NT] A best-fit method was used to estimate terminal elimination and to extrapolate any plasma concentration versus time profiles to compute [NT].", "key": {"[1]": {"details": "in vivo, 115 mg/m2, Cycle 1 Day 1, Cohort B2, 115 mg/m2 per dose"}, "[2]": {"details": "in vivo, 115 mg/m2, Cycle 1 Day 1, Cohort A1, 115 mg/m2 per dose, individual patients"}, "[3]": {"details": "in vivo, 115 mg/m2, Cycle 1 Day 1, patient N0773, Cohort B2, 115 mg/m2 per dose, Dose 75"}, "[4]": {"details": "in vivo, 115 mg/m2, Cycle 1 Day 15, Cohort A1, 115 mg/m2 per dose, individual patients"}, "[5]": {"details": "in vivo, 115 mg/m2, Cycle 1 Day 15, patient N0773, Cohort B2, 115 mg/m2 per dose, Dose 75"}, "[6]": {"details": "plasma, oral, 45 mg/m2, Cohort A1, 45 mg/m2 per dose, C1D15, Geometric Mean, N 3"}, "[7]": {"details": "plasma, oral, 45 mg/m2, Cohort A1, 45 mg/m2 per dose, C1D15, Median, N 3"}, "[8]": {"details": "plasma, oral, 45 mg/m2, Cycle 1 Day 1, Cohort A1, 45 mg/m2 per dose, individual patients"}, "[9]": {"details": "plasma, oral, 60 mg/m2, Cohort A1, 60 mg/m2 per dose, C1D15, Median, N 3"}}, "note": "Where two headings read alike, the source gives them in different places."}
{"smiles": "C[C@H]1Oc2cc(cnc2N)-c2c(nn(C)c2C#N)CN(C)C(=O)c2ccc(F)cc21", "note": "[Lorlatinib, (10R)-7-amino-12-fluoro-2,10,16-trimethyl-15-oxo-10,15,16,17-tetrahydro-2H-8,4-(metheno)pyrazolo[4,3-h][2,5,11]-benzoxadiazacyclotetradecine-3-carbonitrile]", "values": [{"measurement": "AUC", "setting": "in vivo, 115 mg/m2, Cycle 1 Day 1, Cohort B2, 115 mg/m2 per dose, read-out: AUCall", "value": 17700, "unit": "ng·h/mL"}, {"measurement": "Cmax", "setting": "[1]", "value": 2320, "unit": "ng/mL"}, {"measurement": "Tmax", "setting": "[1]", "value": 1, "unit": "h"}, {"measurement": "AUC(0-t)", "setting": "[2]", "value": 14700, "unit": "ng·h/mL"}, {"measurement": "MRT last", "setting": "[2]", "value": 8.5, "unit": "h"}, {"measurement": "AUC", "setting": "in vivo, 115 mg/m2, Cycle 1 Day 1, Cohort A1, 115 mg/m2 per dose, individual patients, read-out: AUCall", "value": 14700, "unit": "ng·h/mL"}, {"measurement": "Cmax", "setting": "[2]", "value": 1440, "unit": "ng/mL"}, {"measurement": "Tmax", "setting": "[2]", "value": 2, "unit": "h"}, {"measurement": "AUC(0-t)", "setting": "[3]", "value": 10800, "unit": "ng·h/mL"}, {"measurement": "MRT last", "setting": "[3]", "value": 8.24, "unit": "h"}, {"measurement": "AUC", "setting": "in vivo, 115 mg/m2, Cycle 1 Day 1, patient N0773, Cohort B2, 115 mg/m2 per dose, Dose 75, read-out: AUCall", "value": 10800, "unit": "ng·h/mL"}, {"measurement": "Cmax", "setting": "[3]", "value": 1660, "unit": "ng/mL"}, {"measurement": "MRT inf", "setting": "in vivo, 115 mg/m2, Cycle 1 Day 15, Cohort A1, 115 mg/m2 per dose, read-out: MRTINF_obs", "value": 11.7, "unit": "h"}, {"measurement": "MRT inf", "setting": "in vivo, 115 mg/m2, Cycle 1 Day 15, Cohort A1, 115 mg/m2 per dose, read-out: MRTINF_pred", "value": 11.7, "unit": "h"}, {"measurement": "MRT inf", "setting": "in vivo, 115 mg/m2, Cycle 1 Day 15, Cohort B2, 115 mg/m2 per dose, read-out: MRTINF_obs", "value": 13.5, "unit": "h"}, {"measurement": "MRT inf", "setting": "in vivo, 115 mg/m2, Cycle 1 Day 15, Cohort B2, 115 mg/m2 per dose, read-out: MRTINF_pred", "value": 13.5, "unit": "h"}, {"measurement": "Tmax", "setting": "in vivo, 115 mg/m2, Cycle 1 Day 15, Cohort B2, 115 mg/m2 per dose", "value": 1, "unit": "h"}, {"measurement": "AUC(0-t)", "setting": "[4]", "value": 8210, "unit": "ng·h/mL"}, {"measurement": "AUC(0-inf)", "setting": "in vivo, 115 mg/m2, Cycle 1 Day 15, Cohort A1, 115 mg/m2 per dose, individual patients, read-out: AUCINF_obs", "value": 10800, "unit": "ng·h/mL"}, {"measurement": "AUC(0-inf)", "setting": "in vivo, 115 mg/m2, Cycle 1 Day 15, Cohort A1, 115 mg/m2 per dose, individual patients, read-out: AUCINF_pred", "value": 10700, "unit": "ng·h/mL"}, {"measurement": "AUC", "setting": "in vivo, 115 mg/m2, Cycle 1 Day 15, Cohort A1, 115 mg/m2 per dose, individual patients, read-out: AUC_TAU", "value": 8210, "unit": "ng·h/mL"}, {"measurement": "AUC", "setting": "in vivo, 115 mg/m2, Cycle 1 Day 15, Cohort A1, 115 mg/m2 per dose, individual patients, read-out: AUCall", "value": 8210, "unit": "ng·h/mL"}, {"measurement": "Cmax", "setting": "[4]", "value": 1350, "unit": "ng/mL"}, {"measurement": "MRT inf", "setting": "in vivo, 115 mg/m2, Cycle 1 Day 15, Cohort A1, 115 mg/m2 per dose, individual patients, read-out: MRTINF_obs", "value": 15.8, "unit": "h"}, {"measurement": "MRT inf", "setting": "in vivo, 115 mg/m2, Cycle 1 Day 15, Cohort A1, 115 mg/m2 per dose, individual patients, read-out: MRTINF_pred", "value": 15.7, "unit": "h"}, {"measurement": "AUC(0-t)", "setting": "[5]", "value": 5370, "unit": "ng·h/mL"}, {"measurement": "AUC(0-inf)", "setting": "in vivo, 115 mg/m2, Cycle 1 Day 15, patient N0773, Cohort B2, 115 mg/m2 per dose, Dose 75, read-out: AUCINF_obs", "value": 6990, "unit": "ng·h/mL"}, {"measurement": "AUC(0-inf)", "setting": "in vivo, 115 mg/m2, Cycle 1 Day 15, patient N0773, Cohort B2, 115 mg/m2 per dose, Dose 75, read-out: AUCINF_pred", "value": 6860, "unit": "ng·h/mL"}, {"measurement": "AUC", "setting": "in vivo, 115 mg/m2, Cycle 1 Day 15, patient N0773, Cohort B2, 115 mg/m2 per dose, Dose 75, read-out: AUC_TAU", "value": 6950, "unit": "ng·h/mL"}, {"measurement": "AUC", "setting": "in vivo, 115 mg/m2, Cycle 1 Day 15, patient N0773, Cohort B2, 115 mg/m2 per dose, Dose 75, read-out: AUCall", "value": 5370, "unit": "ng·h/mL"}, {"measurement": "Cmax", "setting": "[5]", "value": 1780, "unit": "ng/mL"}, {"measurement": "MRT inf", "setting": "in vivo, 115 mg/m2, Cycle 1 Day 15, patient N0773, Cohort B2, 115 mg/m2 per dose, Dose 75, read-out: MRTINF_obs", "value": 4.18, "unit": "h"}, {"measurement": "MRT inf", "setting": "in vivo, 115 mg/m2, Cycle 1 Day 15, patient N0773, Cohort B2, 115 mg/m2 per dose, Dose 75, read-out: MRTINF_pred", "value": 3.73, "unit": "h"}, {"measurement": "AUC", "setting": "in vivo, 115 mg/m2, steady state, Cohort A1, 115 mg/m^2 QD, (CV), read-out: AUCtau", "value": 8640, "unit": "ng·h/mL"}, {"measurement": "Cmax", "setting": "in vivo, 115 mg/m2, steady state, Cohort A1, 115 mg/m^2 QD, (CV)", "value": 1210, "unit": "ng/mL"}, {"measurement": "Tmax", "setting": "in vivo, 115 mg/m2, steady state, Cohort A1, 115 mg/m^2 QD", "value": 1.5, "unit": "h"}, {"measurement": "AUC", "setting": "in vivo, 115 mg/m2, steady state, Cohort B2 (with topotecan/cyclophosphamide), 115 mg/m^2 QD, (CV), read-out: AUCtau", "value": 7950, "unit": "ng·h/mL"}, {"measurement": "Cmax", "setting": "in vivo, 115 mg/m2, steady state, Cohort B2 (with topotecan/cyclophosphamide), 115 mg/m^2 QD, (CV)", "value": 1460, "unit": "ng/mL"}, {"measurement": "Tmax", "setting": "in vivo, 115 mg/m2, steady state, Cohort B2 (with topotecan/cyclophosphamide), 115 mg/m^2 QD", "value": 1, "unit": "h"}, {"measurement": "AUC", "setting": "in vivo, 150 mg per dose, Cycle 1 Day 1, Cohort A2, 150 mg per dose, read-out: AUCall", "value": 8360, "unit": "ng·h/mL"}, {"measurement": "AUC", "setting": "in vivo, 150 mg per dose, Cycle 1 Day 15, Cohort A2, 150 mg per dose, read-out: AUCall", "value": 8300, "unit": "ng·h/mL"}, {"measurement": "AUC", "setting": "in vivo, 150 mg, Cycle 1 Day 15, Cohort A2, 150 mg per dose, read-out: AUC_TAU", "value": 8300, "unit": "ng·h/mL"}, {"measurement": "AUC", "setting": "plasma, oral, 45 mg/m2, Cohort A1, 45 mg/m2 per dose, C1D15, Geometric Mean, N 3, read-out: AUC_TAU", "value": 2470, "unit": "ng·h/mL"}, {"measurement": "Cmax", "setting": "[6]", "value": 355, "unit": "ng/mL"}, {"measurement": "Tmax", "setting": "[6]", "value": 1.26, "unit": "h"}, {"measurement": "AUC", "setting": "plasma, oral, 45 mg/m2, Cohort A1, 45 mg/m2 per dose, C1D15, Median, N 3, read-out: AUC_TAU", "value": 3220, "unit": "ng·h/mL"}, {"measurement": "Cmax", "setting": "[7]", "value": 287, "unit": "ng/mL"}, {"measurement": "Tmax", "setting": "[7]", "value": 1, "unit": "h"}, {"measurement": "Tmax", "setting": "plasma, oral, 45 mg/m2, Cohort A1, 45 mg/m2 per dose, C1D15, individual patient", "value": 1, "unit": "h"}, {"measurement": "MRT last", "setting": "[8]", "value": 7.18, "unit": "h"}, {"measurement": "Tmax", "setting": "[8]", "value": 1, "unit": "h"}, {"measurement": "Tmax", "setting": "plasma, oral, 45 mg/m2, Cycle 1 Day 15, Cohort A1, 45 mg/m2 per dose, individual patients", "value": 1, "unit": "h"}, {"measurement": "AUC", "setting": "plasma, oral, 45 mg/m^2, steady state (cycle 1, day 15), Cohort A1, 45 mg/m^2 QD, (CV), read-out: AUCtau", "value": 2470, "unit": "ng·h/mL"}, {"measurement": "Cmax", "setting": "plasma, oral, 45 mg/m^2, steady state (cycle 1, day 15), Cohort A1, 45 mg/m^2 QD, (CV)", "value": 354, "unit": "ng/mL"}, {"measurement": "Tmax", "setting": "plasma, oral, 45 mg/m^2, steady state (cycle 1, day 15), Cohort A1, 45 mg/m^2 QD", "value": 1, "unit": "h"}, {"measurement": "AUC", "setting": "plasma, oral, 60 mg/m2, Cohort A1, 60 mg/m2 per dose, C1D15, Geometric Mean, N 3, read-out: AUC_TAU", "value": 3930, "unit": "ng·h/mL"}, {"measurement": "Cmax", "setting": "plasma, oral, 60 mg/m2, Cohort A1, 60 mg/m2 per dose, C1D15, Geometric Mean, N 3", "value": 492, "unit": "ng/mL"}, {"measurement": "AUC", "setting": "plasma, oral, 60 mg/m2, Cohort A1, 60 mg/m2 per dose, C1D15, Median, N 3, read-out: AUC_TAU", "value": 4140, "unit": "ng·h/mL"}, {"measurement": "Cmax", "setting": "[9]", "value": 558, "unit": "ng/mL"}, {"measurement": "Tmax", "setting": "[9]", "value": 2, "unit": "h"}, {"measurement": "AUC", "setting": "plasma, oral, 60 mg/m2, Cohort A1, 60 mg/m2 per dose, C1D15, individual patient, read-out: AUC_TAU", "value": 4140, "unit": "ng·h/mL"}]}
